Experiments:
Type in all cases: cell-based
Pseudamonas aeruginosa = assay: Contact germicidal screen, Pseudamonas aeruginosa ATCC No. 14502
Method: (§1) The organisms used in the contact germicidal screen are all maintained as stock cultures on nutrient agar […] 4° C. They are transferred and biochemically diagnosed monthly. The five organisms used are: The media used are: […] Overnight cultures of the test organisms are grown in tryptose phosphate broth. After 15-16 hours, the cultures are centrifuged at […] for 15 minutes, and the supernatant replaced with fresh warm (37° C.) media. After two hours of incubation, the absorbance of the culture at 650 nm is determined and diluted with nutrient broth to 1×10^7 colony forming units per ml (using a previous determined standard curve: colony forming units/ml vs. absorbance at 650). The diluted cultures are maintained at 4°-8° C. throughout the screen. The compounds are weighed into sterile 100 ml volumetric flasks, and immediately before screening dissolved in one of the following buffers: 0.1 M NaOAc pH 4.6 or 0.1 M NaH2 PO4 pH 7.0. If solubility poses a problem, 10-30% methanol is used to effect solution. Two denaturing agents are also tested: […] Horse Serum restored with 100 ml distilled water and 10% Trition×100. When used, 2.5 ml of the denaturing agent is mixed with 2.5 ml of double strength test solution thirty minutes before the bacterial suspension is added. The screen is initiated when 0.2 ml of the bacterial suspension is added to 5.0 ml of the test solution contained in a sterile 25 ml glass stoppered flask. At intervals of 0.5, 2.5, 5.0, 10.0 and 15.0 minutes, a loopful of the inoculated test solution is subcultured into 5 ml of sterile nutrient broth and mixed with a vortex, the high dilution serving to stop the action of the compound. All of the subculture tubes are incubated at 37° C. and checked for signs of growth by turbidity at 1, 3, 5 and 7 days. The earliest subculture time at which no growth is present is considered the endpoint and is recorded as the sterilization time. An aliquot of 0.2 ml of the diluted culture is transferred to 5 ml of buffer to simulate 0.2 ml in 5 ml of test solution. (a) Purity: A loopful of the inoculated buffer is streaked onto nutrient agar to check colony morphology and lack of contaminants. (b) Viability: A loopful of the inoculated buffer is subcultured to 5 ml of nutrient broth as in the screen and incubated at 37° C. for 24 hours. (c) Dilution of the Test Solution: A loopful of the test solution is transferred to a 5 ml tube of nutrient broth, and a loopful of the inoculated buffer is transferred to the same tube of broth. […] (d) Purity of Organisms in the Test Solution: After the 15 minute subculture, a loopful of the inoculated test solution is streaked onto nutrient agar to insure that contamination has not occurred during the screen. (e) lack of Bactericidal Activity of Buffers and Other Solvents: Before a buffer or other solvent is used as a diluent, it is screened against the five organisms to insure that the buffer or solvent has no antibacterial activity itself.

[1] = tested on: Trychophyton mentagrophytes; assay: Contact fungicidal screen, Trychophyton mentagrophytes; settings: 0.1M NaOAc pH 4.6
Aspergillus fumigatus = assay: Contact fungicidal screen, Aspergillus fumigatus; settings: 0.1M NaOAc pH 4.6
Method: The organisms used in the Contact Fungicidal Screen are a dermatophyte, trychophyton mentagrophytes, frequently associated with athlete's foot; a yeast, Candida albican, causative agent of thrush and vaginitis; a phycomycete, Rhizopus oryzae, commonly known as black bread mold; an ascomycete, Aspergillus fumagatis, found in chicken droppings and causing lung infections; and another dermatophyte, Microsporum canis, which causes ringworm. These organisms are maintained as stock cultures at 4° C. on agar […] of the following composition: dextrose 2%, Neopeptone (Difco) 1%, agar 2%. Fluid medium of the same nutrient composition (without agar) was used to test the viability of the organisms after exposure to the fungicide. This medium is also known as Sabouraud's medium. Sabouraud's agar plate cultures of Aspergillus fumigatus, Microsporum canis, and a different culture of Trychophyton mentagrophytes are prepared by planting an inoculum at the center of an agar plate and incubating at 25°-30° C. for seven to ten days. The mycelial mats are removed from the surface of the agar and prepared in the same manner as the Rhizopus culture. The compounds are weighed into heat sterilized 100 ml volumetric flasks and immediately before screening dissolved in 0.1 M NaOAc pH 4.6 buffer (test solutions). The Aspergillus, Candida, Microsporum and Rhizopus species are screened in a slightly different manner. Basically, the procedure for the Contact Germicidal Efficiency Screen is utilized. After the test solutions are made up, 5 ml aliquots are pipetted into heat sterilized 25 ml glass stoppered erlenmeyer flasks. The screen is initiated when 0.5 ml of the 5×10^6 cell (spore) per ml suspension is added to the flask containing 5 ml of the test solution. […] The subculture tubes are incubated at 25°-30° C. for ten days with daily observation for mycelial growth. The earliest subculture time at which no growth is present is considered the endpoint and is recorded as the sterilization time. To insure the viability of the culture, a 0.5 ml aliquot of the 5×10^6 cells (spores) per ml suspension is transferred to 5 ml of the pH 4.6 buffer. A loopful of the inoculated buffer is then subcultured to 7 ml of fluid Sabouraud's medium and incubated at 25°-30° C. for ten days. To insure that the dilution of the test solution into the subculture medium does stop the action, a loopful of the test solution and a loopful of the inoculated buffer are transferred into the same subculture tube. This tube is also incubated at 25°-30° C. for ten days.

Staphylococcus aureus = assay: Contact germicidal screen, Staphylococcus aureus ATCC No. 6538
Method: as §1

[2] = 10.0+ PPM, 0.1M NaOAc pH 4.6, screened simultaneously with four other compounds
[3] = 291.4 PPM, Triton X100 (10% solution):pH 4.6 buffer 1:1
[4] = 291.4 PPM, horse serum:pH 4.6 buffer 1:1
[5] = 300 PPM with 50% Horse Serum, 0.1M NaOAc pH 4.6
[6] = 300 PPM with 50% Triton X100, 0.1M NaOAc pH 4.6
[7] = 1000 PPM with 50% Horse Serum, 0.1M NaOAc pH 4.6
[8] = 1024.4 PPM, 0.1M NaH2PO4 pH 7.0
[9] = 1042.0 PPM, horse serum:pH 4.6 buffer 1:1
[10] = 308.0 PPM, Triton X100 (10% solution):pH 4.6 buffer 1:1
[11] = 338.7 PPM, horse serum:pH 4.6 buffer 1:1
[12] = 1024.0 PPM, horse serum:pH 4.6 buffer 1:1
[13] = 1070.3 PPM, 0.1M NaH2PO4 pH 7.0
[14] = 308.0 PPM, horse serum:pH 4.6 buffer 1:1
[15] = 1000.0 PPM, horse serum:pH 4.6 buffer 1:1
[16] = 1012.3 PPM, 0.1M NaH2PO4 pH 7.0

CC(C)(COC(=O)CCCC(=O)O)N(Cl)Cl [(V), 2-dichloramino-2-methylpropyl-hemiglutarate]
2.5 min: Sterilization Time (Pseudamonas aeruginosa; 99.1 PPM, 0.1M NaOAc pH 4.6) | Sterilization Time (summary) (Pseudamonas aeruginosa; 100 PPM, 0.1M NaOAc pH 4.6) | Sterilization Time (Pseudamonas aeruginosa; [3]) | Sterilization Time (summary) (Pseudamonas aeruginosa; [6]) | Sterilization Time ([1]; 100 PPM) | Sterilization Time (Staphylococcus aureus; 99.1 PPM, 0.1M NaOAc pH 4.6) | Sterilization Time (summary) (Staphylococcus aureus; 100 PPM, 0.1M NaOAc pH 4.6) | Sterilization Time (Staphylococcus aureus; [3]) | Sterilization Time (summary) (Staphylococcus aureus; [6]) | Sterilization Time (summary) (Staphylococcus aureus; [7]) | Sterilization Time (Staphylococcus aureus; [9])
15 min: Sterilization Time (Pseudamonas aeruginosa; 10.0 PPM, 0.1M NaH2PO4 pH 7.0) | Sterilization Time (Pseudamonas aeruginosa; 106.7 PPM, 0.1M NaH2PO4 pH 7.0) | Sterilization Time (Pseudamonas aeruginosa; [4]) | Sterilization Time (summary) (Pseudamonas aeruginosa; [5]) | Sterilization Time (Pseudamonas aeruginosa; [8]) | Sterilization Time (Aspergillus fumigatus; 10 PPM) | Sterilization Time (Aspergillus fumigatus; 100 PPM) | Sterilization Time (Aspergillus fumigatus; 1000 PPM) | Sterilization Time (Staphylococcus aureus; 10.0 PPM, 0.1M NaH2PO4 pH 7.0) | Sterilization Time (Staphylococcus aureus; 106.7 PPM, 0.1M NaH2PO4 pH 7.0) | Sterilization Time (Staphylococcus aureus; [4]) | Sterilization Time (summary) (Staphylococcus aureus; [5])
10.0 min: Sterilization Time (Pseudamonas aeruginosa; 10.0 PPM, 0.1M NaOAc pH 4.6) | Sterilization Time (summary) (Pseudamonas aeruginosa; [7]) | Sterilization Time (Pseudamonas aeruginosa; [9]) | Sterilization Time (Staphylococcus aureus; [2]) | Sterilization Time (summary) (Staphylococcus aureus; 10 PPM, 0.1M NaOAc pH 4.6) | Sterilization Time (Staphylococcus aureus; 10.0 PPM, 0.1M NaOAc pH 4.6)
5.0 min: Sterilization Time (Pseudamonas aeruginosa; [2]) | Sterilization Time (summary) (Pseudamonas aeruginosa; 10 PPM, 0.1M NaOAc pH 4.6) | Sterilization Time ([1]; 10 PPM) | Sterilization Time (Staphylococcus aureus; [8])
0.5 min: Sterilization Time (Pseudamonas aeruginosa; 911.8 PPM, 0.1M NaOAc pH 4.6) | Sterilization Time (summary) (Pseudamonas aeruginosa; 1000 PPM, 0.1M NaOAc pH 4.6) | Sterilization Time ([1]; 1000 PPM) | Sterilization Time (Staphylococcus aureus; 911.8 PPM, 0.1M NaOAc pH 4.6) | Sterilization Time (summary) (Staphylococcus aureus; 1000 PPM, 0.1M NaOAc pH 4.6)

CC(C)(COC(=O)CCC(=O)O)N(Cl)Cl [(IV), 2-Dichloroamino-2-methylpropylhemisuccinate]
10.0 min: Sterilization Time (Pseudamonas aeruginosa; 8.6 PPM, 0.1M NaOAc pH 4.6) | Sterilization Time (summary) (Pseudamonas aeruginosa; [7]) | Sterilization Time (Pseudamonas aeruginosa; [12]) | Sterilization Time (Staphylococcus aureus; 149.7 PPM, 0.1M NaH2PO4 pH 7.0) | Sterilization Time (Staphylococcus aureus; [13])
0.5 min: Sterilization Time (summary) (Pseudamonas aeruginosa; 1000 PPM, 0.1M NaOAc pH 4.6) | Sterilization Time (Pseudamonas aeruginosa; 1008.0 PPM, 0.1M NaOAc pH 4.6) | Sterilization Time ([1]; 1000 PPM) | Sterilization Time (summary) (Staphylococcus aureus; 1000 PPM, 0.1M NaOAc pH 4.6) | Sterilization Time (Staphylococcus aureus; 1008.0 PPM, 0.1M NaOAc pH 4.6)
15 min: Sterilization Time (Pseudamonas aeruginosa; 9.8 PPM, 0.1M NaH2PO4 pH 7.0) | Sterilization Time (Pseudamonas aeruginosa; 149.7 PPM, 0.1M NaH2PO4 pH 7.0) | Sterilization Time (summary) (Pseudamonas aeruginosa; [5]) | Sterilization Time (Pseudamonas aeruginosa; [11]) | Sterilization Time (Pseudamonas aeruginosa; [13]) | Sterilization Time (Aspergillus fumigatus; 10 PPM) | Sterilization Time (Aspergillus fumigatus; 100 PPM) | Sterilization Time (Aspergillus fumigatus; 1000 PPM) | Sterilization Time (Staphylococcus aureus; 9.8 PPM, 0.1M NaH2PO4 pH 7.0) | Sterilization Time (Staphylococcus aureus; [2]) | Sterilization Time (summary) (Staphylococcus aureus; 10 PPM, 0.1M NaOAc pH 4.6)
15.0 min: Sterilization Time (Staphylococcus aureus; 8.6 PPM, 0.1M NaOAc pH 4.6) | Sterilization Time (summary) (Staphylococcus aureus; [5]) | Sterilization Time (Staphylococcus aureus; [11])
2.5 min: Sterilization Time (summary) (Pseudamonas aeruginosa; 100 PPM, 0.1M NaOAc pH 4.6) | Sterilization Time (Pseudamonas aeruginosa; 106.2 PPM, 0.1M NaOAc pH 4.6) | Sterilization Time (summary) (Pseudamonas aeruginosa; [6]) | Sterilization Time (Pseudamonas aeruginosa; [10]) | Sterilization Time ([1]; 100 PPM) | Sterilization Time (summary) (Staphylococcus aureus; 100 PPM, 0.1M NaOAc pH 4.6) | Sterilization Time (Staphylococcus aureus; 106.2 PPM, 0.1M NaOAc pH 4.6) | Sterilization Time (summary) (Staphylococcus aureus; [6]) | Sterilization Time (Staphylococcus aureus; [10]) | Sterilization Time (summary) (Staphylococcus aureus; [7]) | Sterilization Time (Staphylococcus aureus; [12])
5.0 min: Sterilization Time (Pseudamonas aeruginosa; [2]) | Sterilization Time (summary) (Pseudamonas aeruginosa; 10 PPM, 0.1M NaOAc pH 4.6) | Sterilization Time ([1]; 10 PPM)

CC(C)(CCC(=O)O)N(Cl)Cl [(III), 4-Dichloroamino-4-methylvaleric acid]
10.0 min: Sterilization Time (Aspergillus fumigatus; 1000 PPM) | Sterilization Time (Staphylococcus aureus; 9.6 PPM, 0.1M NaOAc pH 4.6)
15 min: Sterilization Time (Pseudamonas aeruginosa; 9.7 PPM, 0.1M NaH2PO4 pH 7.0) | Sterilization Time (Pseudamonas aeruginosa; 103.5 PPM, 0.1M NaH2PO4 pH 7.0) | Sterilization Time (summary) (Pseudamonas aeruginosa; [5]) | Sterilization Time (Pseudamonas aeruginosa; [14]) | Sterilization Time (Aspergillus fumigatus; 10 PPM) | Sterilization Time (Aspergillus fumigatus; 100 PPM) | Sterilization Time (Staphylococcus aureus; 9.7 PPM, 0.1M NaH2PO4 pH 7.0) | Sterilization Time (Staphylococcus aureus; 103.5 PPM, 0.1M NaH2PO4 pH 7.0)
2.5 min: Sterilization Time (Pseudamonas aeruginosa; [2]) | Sterilization Time (summary) (Pseudamonas aeruginosa; 10 PPM, 0.1M NaOAc pH 4.6) | Sterilization Time (summary) (Pseudamonas aeruginosa; [6]) | Sterilization Time (Pseudamonas aeruginosa; [10]) | Sterilization Time (summary) (Staphylococcus aureus; 100 PPM, 0.1M NaOAc pH 4.6) | Sterilization Time (Staphylococcus aureus; 102.2 PPM, 0.1M NaOAc pH 4.6) | Sterilization Time (summary) (Staphylococcus aureus; [6]) | Sterilization Time (Staphylococcus aureus; [10])
0.5 min: Sterilization Time (summary) (Pseudamonas aeruginosa; 100 PPM, 0.1M NaOAc pH 4.6) | Sterilization Time (Pseudamonas aeruginosa; 102.2 PPM, 0.1M NaOAc pH 4.6) | Sterilization Time (summary) (Pseudamonas aeruginosa; 1000 PPM, 0.1M NaOAc pH 4.6) | Sterilization Time (Pseudamonas aeruginosa; 1007.7 PPM, 0.1M NaOAc pH 4.6) | Sterilization Time ([1]; 100 PPM) | Sterilization Time ([1]; 1000 PPM) | Sterilization Time (summary) (Staphylococcus aureus; [7]) | Sterilization Time (summary) (Staphylococcus aureus; 1000 PPM, 0.1M NaOAc pH 4.6) | Sterilization Time (Staphylococcus aureus; [15]) | Sterilization Time (Staphylococcus aureus; 1007.7 PPM, 0.1M NaOAc pH 4.6)
5.0 min: Sterilization Time (Pseudamonas aeruginosa; 9.6 PPM, 0.1M NaOAc pH 4.6) | Sterilization Time (summary) (Pseudamonas aeruginosa; [7]) | Sterilization Time (Pseudamonas aeruginosa; [15]) | Sterilization Time (Pseudamonas aeruginosa; [16]) | Sterilization Time ([1]; 10 PPM) | Sterilization Time (Staphylococcus aureus; [2]) | Sterilization Time (summary) (Staphylococcus aureus; 10 PPM, 0.1M NaOAc pH 4.6) | Sterilization Time (summary) (Staphylococcus aureus; [5]) | Sterilization Time (Staphylococcus aureus; [14]) | Sterilization Time (Staphylococcus aureus; [16])

— patent US4386103A, “Dichloroamino acid derivatives useful as potent germicidal and fungicidal agents” (Merck & Co., Inc., priority 1981, dated 1983)
